# According to patent US9695155B2, “Herbicidal substituted pyrimidinyloxy benzene compounds” (E. I. DU PONT DE NEMOURS AND COMPANY, priority 2013, dated 2017):
# How the values were obtained:
# wild oat = test: Test C postemergence; assay type: in vivo, Avena fatua; conditions: for Oat, Wild plant response rating: 31 g ai/ha; for Oat, Wild plant response rating / Plant response rating, Oat, Wild: scale 0 to 100 (0 no effect, 100 complete control)
# Summary of the method: (§1)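 Sown in loam/sand → sprayed pre-emergence; or grown to 1–4 leaves in peat mix → sprayed post-emergence. Same solvent/surfactant formulation both ways. Greenhouse 13–15 d. Score 0–100 visual.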
# yellow nutsedge [1] = test: Test C postemergence; assay type: in vivo, Cyperus esculentus; conditions: for Nutsedge, Yellow plant response rating: 31 g ai/ha; for Nutsedge, Yellow plant response rating / Plant response rating, Nutsedge, Yellow: scale 0 to 100 (0 no effect, 100 complete control)
# Summary of the method: as §1
# yellow nutsedge [2] = test: Test C preemergence; assay type: in vivo, Cyperus esculentus; conditions: for Nutsedge, Yellow plant response rating: preemergence; for Plant response rating, Nutsedge, Yellow: Preemergence, 62 g ai/ha, scale 0 to 100, 0 no effect, 100 complete control
# Summary of the method: as §1
# morningglory [3] = test: Test C postemergence; assay type: in vivo, Ipomoea coccinea; conditions: for Morningglory plant response rating: 31 g ai/ha; for Morningglory plant response rating / Plant response rating, Morningglory: scale 0 to 100 (0 no effect, 100 complete control)
# Summary of the method: as §1
# barnyardgrass = test: Test A preemergence; assay type: in vivo, Echinochloa crus-galli; conditions: for Barnyardgrass plant response rating (0 to 100 scale, 0 is no effect, 100 is complete control): 125 g ai/ha; for Barnyardgrass plant response rating: 500 g ai/ha, 0 to 100 scale where 0 is no effect and 100 is complete control
# Summary of the method: (§2)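 Greenhouse pot test, loam/sand soil. Formulation: non-phytotoxic solvent mix plus surfactant. Pre: directed spray onto soil after sowing. Post: plants at 1–2 leaf, 2–10 cm. Rated visually vs untreated controls at ~10 d, 0 (no effect) to 100 (complete control).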
# velvetleaf = test: Test A postemergence; assay type: in vivo, Abutilon theophrasti; conditions: 0 to 100 scale where 0 is no effect and 100 is complete control; for Velvetleaf plant response rating: 125 g ai/ha; for Plant response rating, Velvetleaf: 500 g ai/ha
# Summary of the method: as §2
# corn = test: Test C preemergence; assay type: in vivo, Zea mays; conditions: for Corn plant response rating: preemergence; for Plant response rating, Corn: Preemergence, 62 g ai/ha, scale 0 to 100, 0 no effect, 100 complete control
# Summary of the method: as §1
# oilseed rape = test: Test C preemergence; assay type: in vivo, Brassica napus; conditions: for Oilseed Rape plant response rating: preemergence; for Plant response rating, Oilseed Rape: Preemergence, 62 g ai/ha, scale 0 to 100, 0 no effect, 100 complete control
# Summary of the method: as §1
# galium = test: Test C preemergence; assay type: in vivo, Galium aparine; conditions: for Galium plant response rating: preemergence; for Plant response rating, Galium: Preemergence, 62 g ai/ha, scale 0 to 100, 0 no effect, 100 complete control
# Summary of the method: as §1
# blackgrass = test: Test C postemergence; assay type: in vivo, Alopecurus myosuroides; conditions: for Blackgrass plant response rating: 31 g ai/ha; for Blackgrass plant response rating / Plant response rating, Blackgrass: scale 0 to 100 (0 no effect, 100 complete control)
# Summary of the method: as §1
# rice = test: Test B flooded paddy test; assay type: in vivo, Oryza sativa; conditions: Flood, 250 g ai/ha; 0 to 100 scale where 0 is no effect and 100 is complete control
# Summary of the method: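 Greenhouse flooded-pot test: compounds dosed into 3 cm standing water over 2-leaf plants, flood held constant. Rated visually after 13–15 days on 0–100 (complete control = 100); a dash marks no test result.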
# kochia = test: Test C postemergence; assay type: in vivo, Kochia scoparia; conditions: for Kochia plant response rating: 31 g ai/ha; for Kochia plant response rating / Plant response rating, Kochia: scale 0 to 100 (0 no effect, 100 complete control)
# Summary of the method: as §1
# morningglory [4] = test: Test C preemergence; assay type: in vivo, Ipomoea coccinea; conditions: for Morningglory plant response rating: preemergence; for Plant response rating, Morningglory: Preemergence, 62 g ai/ha, scale 0 to 100, 0 no effect, 100 complete control
# Summary of the method: as §1
# [5] = 16 g ai/ha, postemergence, 0 is no effect, 100 is complete control
# [6] = postemergence, visual rating, 13 to 15 days
# [7] = 125 g ai/ha, postemergence, visual rating
# [8] = Postemergence, 62 g ai/ha, 13 to 15 days
# [9] = 16 g ai/ha, scale 0 to 100 (0 no effect, 100 complete control)
# [10] = 125 g ai/ha, scale 0 (no effect) to 100 (complete control)
# [11] = 250 g ai/ha, scale 0 (no effect) to 100 (complete control)
Compound,"Oat, Wild plant response rating (wild oat; [6])","Plant response rating, Oat, Wild (wild oat; [7])","Plant response rating, Oat, Wild (wild oat; [8])","Nutsedge, Yellow plant response rating (yellow nutsedge [1]; [6])","Plant response rating, Nutsedge, Yellow (yellow nutsedge [1]; [7])","Plant response rating, Nutsedge, Yellow (yellow nutsedge [1]; [8])","Nutsedge, Yellow plant response rating (yellow nutsedge [2]; [10])","Plant response rating, Nutsedge, Yellow (yellow nutsedge [2])",Morningglory plant response rating (morningglory [3]; [6]),"Plant response rating, Morningglory (morningglory [3]; [7])","Plant response rating, Morningglory (morningglory [3]; [8])","Barnyardgrass plant response rating (0 to 100 scale, 0 is no effect, 100 is complete control) (barnyardgrass)",Barnyardgrass plant response rating (barnyardgrass),Velvetleaf plant response rating (velvetleaf),"Plant response rating, Velvetleaf (velvetleaf)",Corn plant response rating (corn; [10]),"Plant response rating, Corn (corn)",Oilseed Rape plant response rating (oilseed rape; [10]),"Plant response rating, Oilseed Rape (oilseed rape)",Galium plant response rating (galium; [10]),other results
N#Cc1cnn(-c2c(Oc3ncc(Cl)cn3)cccc2C(F)F)c1 [Compound 236],0,5,5,0,5,0,75,60,45,75,70,100,100,90,100,90,10,100,100,100,"Plant response rating (0 to 100), Oat, Wild (wild oat; [5]): 0; Plant response rating (0 to 100), Nutsedge, Yellow (yellow nutsedge [1]; [5]): 0; Nutsedge, Yellow plant response rating (yellow nutsedge [2]; [9]): 0; Plant response rating (0 to 100), Morningglory (morningglory [3]; [5]): 10; Corn plant response rating (corn; [9]): 0; Oilseed Rape plant response rating (oilseed rape; [9]): 80; Galium plant response rating (galium; [9]): 90; Plant response rating, Galium (galium): 100; Plant response rating (0 to 100), Blackgrass (blackgrass; [5]): 0; Blackgrass plant response rating (blackgrass; [6]): 5; Plant response rating, Blackgrass (blackgrass; [7]): 20; Plant response rating, Blackgrass (blackgrass; [8]): 5; Plant response rating, Rice (rice): 0; Plant response rating (0 to 100), Kochia (kochia; [5]): 30; Kochia plant response rating (kochia; [6]): 80; Plant response rating, Kochia (kochia; [7]): 90; Plant response rating, Kochia (kochia; [8]): 85; Morningglory plant response rating (morningglory [4]; [9]): 0; Morningglory plant response rating (morningglory [4]; [10]): 98; Plant response rating, Morningglory (morningglory [4]): 55"
N#Cc1cccc(Oc2ncc(Cl)cn2)c1-n1cc(I)cn1 [Compound 204],20,15,15,0,0,10,60,0,60,98,65,70,100,100,100,5,0,98,95,100,"Plant response rating (0 to 100), Oat, Wild (wild oat; 250 g ai/ha, postemergence): 15; Plant response rating (0 to 100), Nutsedge, Yellow (yellow nutsedge [1]; 250 g ai/ha, postemergence): 5; Nutsedge, Yellow plant response rating (yellow nutsedge [2]; [11]): 60; Plant response rating (0 to 100), Morningglory (morningglory [3]; 250 g ai/ha, postemergence): 95; Corn plant response rating (corn; [11]): 35; Oilseed Rape plant response rating (oilseed rape; [11]): 100; Galium plant response rating (galium; [11]): 100; Plant response rating, Galium (galium): 100; Blackgrass plant response rating (blackgrass; [6]): 5; Plant response rating, Blackgrass (blackgrass; [7]): 10; Plant response rating (0 to 100), Blackgrass (blackgrass; 250 g ai/ha, postemergence): 25; Plant response rating, Blackgrass (blackgrass; [8]): 5; Plant response rating, Rice (rice): 20; Kochia plant response rating (kochia; [6]): 90; Plant response rating, Kochia (kochia; [7]): 100; Plant response rating (0 to 100), Kochia (kochia; 250 g ai/ha, postemergence): 100; Plant response rating, Kochia (kochia; [8]): 100; Morningglory plant response rating (morningglory [4]; [10]): 98; Morningglory plant response rating (morningglory [4]; [11]): 98; Plant response rating, Morningglory (morningglory [4]): 98"
